*: point of attachment. Palmitoyl = CCCCCCCCCCCCCCCC(=O)*
Experiments:
[1] = system: P. falciparum sporozoites, liver schizonts, infected RBC; test: Immunofluorescent Ab assay (IFAT) of sera from immunized mice against native parasite; assay type: in vivo
Experimental: FIG. 2: Mucosal immunization elicits parasite-specific antibody responses. Sera were obtained from C3H/HeJ mice at 2weeks post-immunization by either nasal or sub-lingual route and assayed fro recognition of (a) P. falciparum sporozoites and (B) hepatic schizonts in an IFI assay as described in Material and Methods. The data are representative of three independent experiments.
The reactivity of the sera against native proteins from various stages of the parasite were analyzed by IFAT using either (i) P. faciparum NF54 strain sporozoites (a gift of W. Eling), or (ii) sections from liver biopsies containing day 5 P. falciparum liver schizonts, or (iii) day 6 ½ P. falciparum liver schizonts obtained from a Chimpanzee. IFAT-labeled anti-human IgG, -A, -M (Diagnostic Pasteur France) or anti-mouse (Cappel. Wester Chester. Pa.) diluted {fraction (1/ 200)} were employed as second Abs.

[2] = system: spleen and inguinal lymph node cells; test: Lymphocyte proliferative assay ((3H)TdR) on spleen and inguinal lymph node cells of immunized mice; assay type: cell-based
Experimental: FIG. 3: Systemic cellular immune responses are electited by presentation of lipid-tailed polypeptides to the nasal and sub-lingual mucosal surfaces. Groups of five C3H/HeJ mice were administrated with LSA3-NRII lipid-tailed (black bars) or non-lipdated polypeptide (hatched bars) either a) intranasally, b) sub-lingually, or c) subcutaneously. Two weeks after two administrations, cell suspensions from individual spleens were assayed for in vitro proliferation to the recall polypeptide. Results are expressed as Δ cpm. The background cpm, in unstimulated cells were 1548 fro intranasal, 2356 for sub-lingual and 1965 for subcutaneous routs, Bars represent the mean Δ cpm±SD in each group. The data were similar and are representative of three separate experiments.

C3H/HeJ mice = test: Isotype analysis of polypeptide-specific serum antibodies (ELISA); assay type: in vivo
[3] = system: T lymphocytes from ganglia sub-mandibulaires; assay type: cell-based, BALB/c mice

Ac-LEESQVNDDIFNSLVKSVQQEQQHNVK(Pam)NH2 (Ac-LEESQVNDDIFNSLVKSVQQEQQHNVK(Palmitoyl)-NH2; SMILES CCCCCCCCCCCCCCCC(=O)NCCCC[C@H](NC(=O)[C@@H](NC(=O)[C@H](CC(N)=O)NC(=O)[C@H](Cc1c[nH]cn1)NC(=O)[C@H](CCC(N)=O)NC(=O)[C@H](CCC(N)=O)NC(=O)[C@H](CCC(=O)O)NC(=O)[C@H](CCC(N)=O)NC(=O)[C@H](CCC(N)=O)NC(=O)[C@@H](NC(=O)[C@H](CO)NC(=O)[C@H](CCCCN)NC(=O)[C@@H](NC(=O)[C@H](CC(C)C)NC(=O)[C@H](CO)NC(=O)[C@H](CC(N)=O)NC(=O)[C@H](Cc1ccccc1)NC(=O)[C@@H](NC(=O)[C@H](CC(=O)O)NC(=O)[C@H](CC(=O)O)NC(=O)[C@H](CC(N)=O)NC(=O)[C@@H](NC(=O)[C@H](CCC(N)=O)NC(=O)[C@H](CO)NC(=O)[C@H](CCC(=O)O)NC(=O)[C@H](CCC(=O)O)NC(=O)[C@H](CC(C)C)NC(C)=O)C(C)C)[C@@H](C)CC)C(C)C)C(C)C)C(C)C)C(N)=O) [LSA3-NRII lipid-tailed polypeptide, palmitoyl lipid-tailed polypeptide derived from P. falciparum LSA-3]
reactivity of induced Abs with infected RBC's by IFAT ([1]; different steps of intra-erythrocytic maturation): did not react
reactivity of induced Abs with intact parasite by IFAT ([1]; sporozoite and liver stages, sera of mucosally immunized BALB/c and C3H/HeJ): react with the intact parasite
proliferative responses against irrelevant polypeptide (LSA1-J) ([2]; Ag specificity): lack of responses
maximal delta cpm, inguinal lymph nodes ([2]; S.L.): 16189 cpm
proliferative responses in spleen cells to recall polypeptide ([2]; S.L. or I.N. application, no mucosal adjuvant, C3H/HeJ): strong proliferative responses
phenotype of lymphoproliferative responses (antibody blocking) ([2]; after mucosal administration, anti-CD4 / anti-CD8 antibodies): abrogated by antibodies against CD4 but not by anti- CD8 antibodies
proliferative responses, mucosally versus subcutaneously immunized animals ([2]; same dose, P<0.05): at higher levels compared to subcutaneously immunized animals
isotype profile of serum antibody response (C3H/HeJ mice; mucosal administration (I.N., S.L.)): preferential IgG2a serum antibody response
isotype profile of serum antibody response (C3H/HeJ mice; subcutaneous route): dominant IgG1 isotype response

Concanavaline A [CON A, reference compound]
immune response (CFSE shift of fluorescence) ([3]; positive control): maximum immune response

Nh2-K(NεPam)GRQYIKANSKFIGITERGRILKEPVHGV-COOH [H-K(PAM)TT-pol 476-484]
shift of fluorescence (CFSE) [3]: as intense as that provided by positive CON A control
